Several values for one entry are separate records, joined by “and”; a condition that tells them apart may be missing. Equal values may be shown once. Toxic doses and inconclusive results are not listed.
Test system: nude mice, LOX melanoma ip, survival T/C
Test: NCI In Vivo Anticancer Drug Screen. Data for tumor model Human Amelanotic Melanoma (LOX) (intraperitoneal) in NU/NU BALB/C (nude) mice
Conditions: endpoint: median survival time, schedule: Q04DX003 (ip), higher = longer survival
Procedure: The antitumor activity of compounds was measured in mice bearing transplantable tumors. Survival or tumor size were measured and the results are expressed as the measurement made in the treated group (T) divided by the measurement made in the vehicle treated control group (C). The tumor model used in this assay is Human Amelanotic Melanoma (LOX) (intraperitoneal) in NU/NU BALB/C (nude) mice

[1] = dose: 75.0 mg/kg/injection, vehicle: saline with Tween-80
[2] = dose: 150.0 mg/kg/injection, vehicle: saline with Tween-80
[3] = dose: 300.0 mg/kg/injection, vehicle: saline with Tween-80

For `C=C(C)/C([O-])=N/[N+](C)(C)CC(O)CCCCCCCCCCCC` (centres undefined), the T/C (dose: 2.5 mg/kg/injection, vehicle: Klucel (hydroxypropylcellulose) (HPC)) was 88 % of control, the T/C (dose: 5.0 mg/kg/injection, vehicle: Klucel (hydroxypropylcellulose) (HPC)) was 91 % of control and the T/C (dose: 10.0 mg/kg/injection, vehicle: Klucel (hydroxypropylcellulose) (HPC)) was 91 % of control and 98 % of control. The T/C (dose: 20.0 mg/kg/injection, vehicle: Klucel (hydroxypropylcellulose) (HPC)) was 101 % of control, the T/C (dose: 40.0 mg/kg/injection, vehicle: Klucel (hydroxypropylcellulose) (HPC)) was 102 % of control and 105 % of control and the T/C (dose: 80.0 mg/kg/injection, vehicle: Klucel (hydroxypropylcellulose) (HPC)) was 105 % of control. The T/C (dose: 160.0 mg/kg/injection, vehicle: Klucel (hydroxypropylcellulose) (HPC)) was 87 % of control.

With `[Cl][Hg][Cl]` the T/C (dose: 0.63 mg/kg/injection, vehicle: saline) was 88 % of control and 96 % of control, the T/C (dose: 2.5 mg/kg/injection, vehicle: saline) was 95 % of control and the T/C (dose: 5.0 mg/kg/injection, vehicle: saline) was 91 % of control.

`Nc1ccc2ccc(N)cc2c1` was tested, and the T/C (dose: 25.0 mg/kg/injection, vehicle: saline with Tween-80) was 102 % of control, the T/C (dose: 50.0 mg/kg/injection, vehicle: saline with Tween-80) was 101 % of control and the T/C (dose: 100.0 mg/kg/injection, vehicle: saline with Tween-80) was 102 % of control. The T/C (dose: 200.0 mg/kg/injection, vehicle: saline with Tween-80) was 91 % of control and the T/C (dose: 400.0 mg/kg/injection, vehicle: saline with Tween-80) was 101 % of control.

In the case of `Cc1cc(Nc2ccc3c(c2)OCO3)c2cc3c(cc2n1)OCO3`, the T/C (dose: 75.0 mg/kg/injection, vehicle: Klucel (hydroxypropylcellulose) (HPC)) was 106 % of control and the T/C (dose: 600.0 mg/kg/injection, vehicle: Klucel (hydroxypropylcellulose) (HPC)) was 152 % of control and 158 % of control.

`COC1C(O)CC(OC2CC(Oc3cc4cc5c(c(O)c4c(O)c3C)C(=O)[C@@H](OC3CC(OC4CC(OC6CC(C)(O)C(OC(C)=O)C(C)O6)C(O)C(C)O4)C(O)C(C)O3)[C@H]([C@H](OC)C(=O)[C@@H](O)[C@@H](C)O)C5)OC(C)C2OC(C)=O)OC1C` (some centres undefined) was tested, and the T/C (dose: 0.15 mg/kg/injection, vehicle: Klucel (hydroxypropylcellulose) (HPC)) was 116 % of control, the T/C (dose: 0.3 mg/kg/injection, vehicle: Klucel (hydroxypropylcellulose) (HPC)) was 314 % of control and the T/C (dose: 0.6 mg/kg/injection, vehicle: Klucel (hydroxypropylcellulose) (HPC)) was 198 % of control.

In the case of `O=C1c2ccccc2C(Cl)(c2ccc(Cl)cc2)c2ccc(Cl)cc21` (centres undefined), the T/C [1] was 93 % of control, the T/C [2] was 116 % of control and the T/C [3] was 92 % of control. The T/C (dose: 600.0 mg/kg/injection, vehicle: saline with Tween-80) was 87 % of control and the T/C (dose: 1200.0 mg/kg/injection, vehicle: saline with Tween-80) was 93 % of control.

For `CCN(CC)CC(C)(C)C(=O)/C=C/c1ccc(/C=C/C(=O)C(C)(C)CN(CC)CC)cc1`, the T/C (dose: 7.5 mg/kg/injection, vehicle: saline) was 103 % of control, the T/C (dose: 15.0 mg/kg/injection, vehicle: saline) was 116 % of control and the T/C (dose: 30.0 mg/kg/injection, vehicle: saline) was 109 % of control.

With `CC(C)NC(=O)OCc1c(COC(=O)NC(C)C)c(-c2ccc(Cl)c(Cl)c2)n2c1CCC2` the T/C [1] was 238 % of control, the T/C (dose: 75.0 mg/kg/injection, vehicle: saline) was 152 % of control and the T/C [2] was 324 % of control. For the same compound, the T/C (dose: 150.0 mg/kg/injection, vehicle: saline) was 210 % of control, the T/C [3] was 313 % of control and the T/C (dose: 300.0 mg/kg/injection, vehicle: saline) was 178 % of control. The T/C (dose: 600.0 mg/kg/injection, vehicle: saline) was 344 % of control and the T/C (dose: 1200.0 mg/kg/injection, vehicle: saline) was 344 % of control.

In the case of `COc1cccc(Sc2ccc([N+](=O)[O-])c3no[n+]([O-])c23)c1`, the T/C (dose: 37.5 mg/kg/injection, vehicle: saline with Tween-80) was 101 % of control, the T/C [1] was 120 % of control and the T/C [2] was 89 % of control. The T/C [3] was 101 % of control.

With `CCCCCCSc1nc(COC(=O)NC)c(COC(=O)NC)n1C` the T/C (dose: 16.85 mg/kg/injection, vehicle: saline) was 102 % of control, the T/C (dose: 33.7 mg/kg/injection, vehicle: saline) was 90 % of control and the T/C (dose: 67.5 mg/kg/injection, vehicle: saline) was 93 % of control. The T/C (dose: 135.0 mg/kg/injection, vehicle: saline) was 107 % of control and the T/C (dose: 270.0 mg/kg/injection, vehicle: saline) was 123 % of control.

For `NC(Cc1ccccc1)C(=O)OCN1C(=O)C2C3C=CC(C2C1=O)C1C2C(=O)N(COC(=O)C(N)Cc4ccccc4)C(=O)C2C31` (centres undefined), the T/C (dose: 25.0 mg/kg/injection, vehicle: water) was 105 % of control, the T/C (dose: 50.0 mg/kg/injection, vehicle: water) was 109 % of control and the T/C (dose: 100.0 mg/kg/injection, vehicle: water) was 107 % of control. For the same compound, the T/C (dose: 200.0 mg/kg/injection, vehicle: water) was 116 % of control.

— PubChem BioAssay AID280 (DTP/NCI, 2004)
